Assay results as given in patent US10077433B2, “Permuted and nonpermuted luciferase biosensors” (PROMEGA CORPORATION, priority 2006, dated 2018).

Tests used:
[1] = tested on: intracellular cAMP concentration, HEK 293 cells; assay: Intracellular cAMP changes in HEK 293 cells transiently transfected with CPM-FF Luc/RIIβB (pBFB141); format: cell-based; conditions: HEK 293 cells, pBFB141; 10 μM isopreterenol or 50 mM forskolin (so in the source), treatment alone, room temperature
Procedure: Cells were cultured in 60 ml in DMEM/F12 with HEPES buffer (Invitrogen) with 10% FBS at 37° C. with 5% CO2.
The ORF encoding the CPM-FF Luc/RIIβB based cAMP biosensor with X/Y linker lengths of (X=10, Y=0) was transferred to Flexi vector pF4K (Flexi vector system; Promega Corp.). The resultant plasmid construct (pBFB141) utilizes an upstream CMV promoter for expression of the associated cAMP biosensor in mammalian cells.
Cells were transfected with TransIt®-LT1 Reagent (MIRUS) using 0.3 μl TransIt®-LT1 reagent and 0.15 μg DNA per well of a 96 well plate. Cells were allowed to grow overnight and were assayed the next day.
Approximately 1 day after transfection, cells were removed from the incubator and equilibrated to room temperature. A 5 μl aliquot of 100 mM Luciferin EF was added to a total of 90 μl of cell culture plus transfection reagent to give a final concentration of approximately 5 mM luciferin. Cells were then incubated at room temperature for at least 90 minutes. After 90 minutes at room temperature, baseline measurements of luminescence were measured using a 96 well Veritas Luminometer (Turner Biosystems; integration time of 0.5 seconds per well). Cells were then induced with 10 μM isopreterenol (CalBiochem), 50 mM forskolin (Sigma) or not induced (0.1% DMSO, Sigma) and luminescence was measured continuously for about 30 minutes. After 30 minutes, […] (Sigma) was added to cells with isopreterenol and 0.1% DMSO was added to all other samples. Luminescence was then measured continuously for the next 30 minutes. A final addition of 50 μM forskolin was added to the isopreterenol/propranolol sample and 0.1% DMSO was added to all other samples. Luminescence was then measured continuously for the next half hour. Samples were measured in sets of 12 replicates. 10× stocks of isopreterenol, propranolol, forskolin and DMSO were made in 1×PBS (Invitrogen).

[2] = tested on: intracellular cAMP, HEK-293 cells; assay: Forskolin titration in HEK-293 cells transfected with CPM-hRL/RIIβB biosensor (201325.78.E5); format: cell-based
Procedure: 100 μl HEK-293 cells were plated in a 96 well plate and grown to 70-90% confluency in DMEM/F12 with HEPES buffer (Invitrogen) with 10% FBS at 37° C. with 5% CO2.
Cells were transfected with TransIt®-LT1 Reagent (MIRUS) using 0.3 μl TransIt®-LT1 reagent and 0.15 μg DNA (CPM-hRL/RIIβB cAMP biosensor with X/Y peptide linker lengths of (X=4, Y=20) (201325.78.E5)) per well of a 96-well plate. Cells were allowed to grow overnight and were assayed the next day.
Approximately 1 day after transfection, cells were removed from incubator and equilibrated to room temperature. A 10 μl aliquot of 600 μM EnduRen Live Cell Substrate (Promega) was added to a total of 100 μl of cell culture to give a final concentration of approximately 60 μM coelentrazine. Cells were then incubated at room temperature for at least 15 minutes. After 15 minutes at room temperature, baseline measurements of luminescence were measured using a 96-well Veritas Luminometer (Turner) at 0.5 seconds per well. Cells were then induced with 0.025 μM-250 μM forskolin (Sigma) or not induced (0.1% DMSO (Sigma)) and luminescence was measured continuously for about 30 minutes (FIG. 19). Samples were measured in sets of 5 replicates per concentration of forskolin. EC50s were calculated using GraphPad Prism for Windows, Version 4.

[3] = tested on: intracellular cAMP, HEK293 cells; assay: HEK293 cells stably expressing CP234-Luc/RIIB, forskolin stimulation and Z′ measurement; format: cell-based
Procedure: The ORF from pBFB135, under the class of biosensors called “CPM-FF Luc/RIIβB,” was used to generate the transient and stable cells lines described below. These cell lines are called “CP234-Luc/RIIB,” “cAMP LucSensor,” “LucSensor,” and “FF cAMP Sensor.”
HEK293 cells stably expressing CP234-Luc/RIIB (ORF derived from pBFB135) were resuspended in complete media and mixed with 5 mM luciferin-EF. Cells were plated at 1×10^5 cells per well in a 96 well plate and equilibrated to room temperature for 1.5 hours. After stimulation with forskolin, luminescence was measured at 15 minutes using a GloMax™ Luminometer.
For a Z′ measurement, 2×10^4 cells were aliquoted per well to a 384-well plate and equilibrated using a similar protocol. Half the plate was induced with […], whereas the other half remained uninduced. Luminescence was captured 15 minutes after induction using a TECAN GENios Pro™ luminometer. The fold of induction was 6.1 and Z′ was 0.83. Since assays with Z′ greater than 0.5 are considered good quality for high-throughput screening (HTS), the cAMP biosensor-based assay is amenable for HTS.

[4] = tested on: intracellular cAMP concentration, HEK 293 cells; assay: Intracellular cAMP changes in HEK293 cells with CPM-hRL Luc/RIIβB biosensors (isopreterenol, propranolol, forskolin); format: cell-based
Procedure: Cells were cultured in 2 mL DMEM/F12 with HEPES buffer (Invitrogen) and 10% FBS at 37° C. with 5% CO2 in a 6 well plate. Three of the constructs described in Example XVII were used to detect intracellular changes of cAMP concentrations. The constructs used were: pBFB277, pBFB279 and pBFB287. HEK293 cells stably expressing CPM91-hRL/RIIβB (ORF derived from 201325.44.H6 were also used in these experiments. HEK293 cells were transfected with TransIt®-LT1 Reagent (MIRUS) using 6 μL TransIt®-LT1 reagent and 2 μg DNA (pBFB277, pBFB279 and pBFB287) per well of a 6 well plate. Cells were allowed to grow overnight and were assayed the next day. Approximately 1 day after transfection, cells were trypsinized, resuspended in fresh DMEM/F12 with HEPES buffer (Invitrogen) with 1% FBS and plated in a 96 well plate at approximately 10,000 cells per well. Alternatively, a HEK293 cell line stably expressing CP91-hRL/RIIβB was plated in a 96 well plate at approximately 10,000 cells per well. A 10 μL aliquot of 600 μM EnduRen was added to a total of 100 μL of cell culture to give a final concentration of approximately […]. Cells were then incubated at 37° C. with 5% CO2. After 5 hours, the plate was removed from the incubator and allowed to cool to room temperature for at least 20 minutes. After 20 minutes, baseline measurements of luminescence were measured using a 96 well Veritas Luminometer (Turner Biosystems; integration time of 0.5 seconds per well). Cells were then induced with 10 μM isopreterenol (CalBiochem), 50 μM forskolin (Sigma) or not induced (0.1% DMSO, Sigma) and luminescence was measured continuously for about 30 minutes. After 30 minutes, 10 μM propranolol (Sigma) was added to cells already induced with isopreterenol and 0.1% DMSO was added to all other samples. Luminescence was then measured continuously for the next 30 minutes. A final addition of 50 μM forskolin was added to the isopreterenol/propranolol sample and 0.1% DMSO was added to all other samples. Luminescence was then measured continuously for the next half hour. Samples were measured in sets of 4-6 replicates. 10× stocks of isopreterenol, propranolol, forskolin and DMSO were made in DMEM/F12 with HEPES buffer (Invitrogen) and 1% FBS.

[5] = CPM-FF Luc calcium biosensors, 10 mM CaCl2 or 10 mM EDTA plus 2.5 mM EGTA; format: biochemical; conditions: 10 mM CaCl2 vs 10 mM EDTA plus 2.5 mM EGTA
Procedure: Calcium biosensors were prepared by fusing sequences encoding a circularly permuted firefly luciferase having engineered N- and C-termini at residues 234 and 233, respectively, to sequences encoding protein domains that bind calcium. One type of calcium biosensor utilized a mutant of fast chicken skeletal muscle troponin C (TnC) (amino acids 15-163; N109D, D111N, N145D, D147N; Genbank NM_205450) [Met-(Luc2.0 234-544)-(Linker X)-(TnC)-(Linker Y)-(Luc2.0 4-233)-Val], and the second type of calcium biosensor utilized human calmodulin (CaM) (amino acids 5-148; Genbank BC005137) [Met-Luc+ (234-544)-(Linker X)-human Calmodulin (5-148)-(Linker Y)-Luc+ (4-233)].
CPM-FF Luc/TnC and CPM-FF Luc/CaM constructs with varying X/Y peptide linker lengths were expressed in vitro using the T7 Coupled Reticulocyte Lysate System (pBFB225, pBFB226, pBFB227, pBFB7; FIG. 24). Reactions were then supplemented with 10 mM CaCl2 or 10 mM EDTA plus 2.5 mM EGTA.

[6] = target: T1, Akt1/PKB alpha recombinant enzyme (Homo sapiens, UniProt P31749); assay: In vitro serine/threonine kinase sensor assay with Akt1/PKB; format: biochemical; conditions: 10 ng Akt1/PKB alpha, 30° C., 20 minutes
T1 construct: purchased Upstate Biotechnology
Procedure: Constructs pBFB335, 336, 338, 339, 340, 417, 418, 419, 422, 22 and 8 were tested in vitro using TNT® T7 Coupled Reticulocyte Lysate System (Promega Corp.). […] Luminescence was measured using a Turner 20/20N luminometer (Turner Biosystems; 1 second integration time). All samples were measured in triplicate. […]
The protocol for other Serine/Threonine kinase sensors is identical to the one above except that for the CPM hRL Luc samples, 5 μL of sample are added to a 96 well plate+5 μL 2× Renilla lysis buffer without detergents (150 mM HEPES, 100 mM Thiourea) and 100 μL Renilla Assay Reagent (Promega Corp.) is added by injectors using a Veritas Microplate Luminometer and luminescence is measured (Turner Biosystems; Bright-Glo program; 3 second integration time). FF Luc samples are measured by adding 100 μL of Luciferase Assay Reagent (LAR; Promega Corp.), to 5 μL of sample in a 96 well plate, by injectors using a Veritas Microplate Luminometer and luminescence measured (Turner Biosystems; Bright-Glo program; 3 second integration time).

T1 sequence (P31749 whole entry): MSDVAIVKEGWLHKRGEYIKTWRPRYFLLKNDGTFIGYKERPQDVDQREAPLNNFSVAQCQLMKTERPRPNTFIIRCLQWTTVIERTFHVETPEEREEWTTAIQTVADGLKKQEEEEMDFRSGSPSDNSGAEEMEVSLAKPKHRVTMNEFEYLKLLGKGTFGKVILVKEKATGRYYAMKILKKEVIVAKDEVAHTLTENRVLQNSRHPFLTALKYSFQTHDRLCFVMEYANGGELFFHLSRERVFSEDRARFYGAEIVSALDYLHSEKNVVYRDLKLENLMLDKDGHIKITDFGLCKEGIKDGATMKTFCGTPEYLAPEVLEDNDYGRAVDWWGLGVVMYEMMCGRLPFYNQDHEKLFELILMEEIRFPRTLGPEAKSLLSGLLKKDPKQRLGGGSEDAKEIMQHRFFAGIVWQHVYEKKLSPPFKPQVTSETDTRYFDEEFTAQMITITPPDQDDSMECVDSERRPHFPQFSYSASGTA

Molecule	increase in light output from transfected cells [1]	light output above that of untreated cells at maximal levels ([2]; CPM-hRL/RIIβB X=4, Y=20 (201325.78.E5)) [fold]	EC50 ([2]; Homo sapiens, HEK293, CPM-hRL/RIIβB X=4, Y=20 (201325.78.E5), read-out: EC50 of the forskolin response) [nM]	fold of induction ([3]; 384-well plate, induced with 20 forskolin (so in the source), 15 minutes) [fold]	EC50 ([3]; Homo sapiens, 0.25 h, HEK293 stably expressing CP234-Luc/RIIB, 96 well, luminescence at 15 minutes) [nM]	increase in light output ([4]; HEK293 cells stably expressing CPM91-hRL/RIIβB, isopreterenol and forskolin treatment)	increase in light output from transfected cells ([4]; HEK 293 transiently transfected with CPM-hRL Luc/RIIβB (X=4, Y=20) constructs, 10 μM isopreterenol or 50 μM forskolin alone)	fold reduction in luminescence activity in the presence of calcium [5]	decrease in luminescence plus Akt1/PKB as compared to no Akt1/PKB [6]
C=C[C@@]1(C)CC(=O)[C@]2(O)[C@@]3(C)[C@@H](O)CCC(C)(C)[C@@H]3[C@H](O)[C@H](OC(C)=O)[C@@]2(C)O1 [forskolin]	approximately 2 fold	3.6	59	6.1	360	about 5 fold	approximately 2 fold		
pBFB22: wild-type firefly luciferase control								No response	did not change
